In patent US5010057A, “Renin-inhibiting peptides having an aminomethyl side chain” (Bayer Aktiengesellschaft, priority 1988, dated 1991):
Starred links: 1 amine or outer side, 2 acyl side, 3 side chain; linkers in the order of their positions; H or OH if unused. Non-standard residues stand in square brackets, D forms with d. Residues, ends and D or L forms follow the SMILES beside them. *: point of attachment. X2 = NCC(C(=O)[*:2])C(O)[C@H](CC1CCCCC1)N[*:1]; X1 = CC(C)C[C@H](N[*:1])C(O)C(CN)C(=O)[*:2]; NHCH2(2-pyridyl) = c1ccc(CN*)nc1; Boc = CC(C)(C)OC(=O)*

Target: T1, endogenous renin from human plasma (Homo sapiens, UniProt P00797)
T1 construct: endogenous renin from human plasma; from tissue; host or cells: pooled human plasma (EDTA)
T1 sequence (P00797 67-406): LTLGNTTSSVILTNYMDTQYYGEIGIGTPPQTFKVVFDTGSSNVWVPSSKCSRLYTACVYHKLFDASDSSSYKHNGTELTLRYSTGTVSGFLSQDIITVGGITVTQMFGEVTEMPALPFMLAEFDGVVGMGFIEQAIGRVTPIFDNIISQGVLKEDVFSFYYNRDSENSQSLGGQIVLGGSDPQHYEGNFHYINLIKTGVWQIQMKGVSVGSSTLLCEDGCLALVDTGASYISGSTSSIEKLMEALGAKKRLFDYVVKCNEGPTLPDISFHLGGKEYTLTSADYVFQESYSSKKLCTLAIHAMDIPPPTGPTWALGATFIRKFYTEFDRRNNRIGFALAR
Experiment: In vitro test: inhibition of plasma renin activity (angiotensin I formation, radioimmunoassay)
Type: biochemical
Conditions: pooled human plasma, 37° C., pH 5.6; for % Inhibition: plasma renin activity, test concentration not given; for IC50: 50% inhibition of plasma renin activity
Method: The inhibitory strength of the peptides according to the invention against endogenous renin from human plasma is determined in vitro. Pooled human plasma is obtained with the addition of ethylenediamintetraacetic acid (EDTA) as an anticoagulant and stored at -20° C. The plasma renin activities (PRA) are determined as the rate of formation of angiotensin I from endogenous angiotensinogen and renin by incubation at 37° C. The reaction solution contains 150 μl of plasma, 3 μl of 6.6% strength 8-hydroxyquinoline sulphate solution, 3 μl of 10% strength dimercaprol solution and 144 μl of sodium phosphate buffer (0.2 M; 0.1% EDTA; pH 5.6) with or without the substances according to the invention in various concentrations. The angiotensin I formed per unit of time is determined using a radioimmunoassay (Sorin Biomedica, Italy). The percentage inhibition of the plasma renin activity is calculated by comparison of […]. The concentration range in which the substances claimed herein show a 50% inhibition of plasma renin activity is between 10^-4 to 10^-9 M.

Row | SMILES | % Inhibition [%] | IC50 [nM]
1 | CC[C@H](C)[C@H](NC(=O)C1CN(Cc2ccccc2)OC1[C@H](Cc1ccccc1)NC(=O)[C@H](Cc1c[nH]cn1)NC(=O)[C@H](Cc1ccccc1)NC(=O)OC(C)(C)C)C(=O)OC (some centres unmarked) [Example 31] | 31 | 
2 | CC(C)CNC(=O)C(CN)C(O)[C@H](CC1CCCCC1)NC(=O)[C@H](Cc1c[nH]cn1)NC(=O)[C@H](Cc1ccccc1)NC(=O)OC(C)(C)C (some centres unmarked) [Example 86] | 92 | 9000
3 | CC[C@H](C)[C@H](NC(=O)C1CN(Cc2ccccc2)OC1[C@H](CC1CCCCC1)NC(=O)[C@H](Cc1c[nH]cn1)NC(=O)[C@H](Cc1ccccc1)NC(=O)OC(C)(C)C)C(=O)OC (some centres unmarked) [Example 39] | 67 | 
4 | CC[C@H](C)[C@H](NC(=O)C(CN)C(O)[C@H](Cc1ccccc1)NC(=O)[C@H](Cc1c[nH]cn1)NC(=O)[C@H](Cc1ccccc1)NC(=O)OC(C)(C)C)C(=O)NCc1ccccn1 (some centres unmarked) [Example 79] | 95 | 2500
5 | CC[C@H](C)[C@H](NC(=O)C(CN)C(O)[C@H](CC1CCCCC1)NC(=O)[C@H](Cc1c[nH]cn1)NC(=O)[C@H](Cc1ccccc1)NC(=O)[C@@H]1CCCN1C(=O)OC(C)(C)C)C(=O)NCc1ccccn1 (some centres unmarked) [Example 85] (Boc-PFH[X2]I-{NHCH2(2-pyridyl)}) | 100 | 240
6 | CC[C@H](C)[C@H](NC(=O)C(CN)C(O)[C@H](Cc1ccccc1)NC(=O)[C@H](Cc1c[nH]cn1)NC(=O)[C@H](Cc1ccccc1)NC(=O)OC(C)(C)C)C(=O)OC (some centres unmarked) [Example 77] | 96 | 11000
7 | CC[C@H](C)[C@H](NC(=O)C(CN)C(O)[C@H](CC1CCCCC1)NC(=O)[C@H](Cc1c[nH]cn1)NC(=O)[C@H](Cc1ccccc1)NC(=O)OC(C)(C)C)C(=O)NCc1ccccn1 (some centres unmarked) [Example 84] | 100 | 92
8 | CC[C@H](C)[C@H](NC(=O)C(CN)C(O)[C@H](CC(C)C)NC(=O)[C@H](Cc1c[nH]cn1)NC(=O)[C@H](Cc1ccccc1)NC(=O)OC(C)(C)C)C(=O)OC (some centres unmarked) [Example 94] | 100 | 3700
9 | CC[C@H](C)[C@H](NC(=O)C(CN)C(O)[C@H](CC(C)C)NC(=O)[C@H](Cc1c[nH]cn1)NC(=O)[C@H](Cc1ccccc1)NC(=O)[C@@H]1CCCN1C(=O)OC(C)(C)C)C(=O)NCc1ccccn1 (some centres unmarked) [Example 97] (Boc-PFH[X1]I-{NHCH2(2-pyridyl)}) | 100 | 22
10 | CC[C@H](C)[C@H](NC(=O)C(CN)C(O)[C@H](CC(C)C)NC(=O)[C@H](Cc1c[nH]cn1)NC(=O)[C@H](Cc1ccccc1)NC(=O)OC(C)(C)C)C(=O)NCc1ccccn1 (some centres unmarked) [Example 96] | 100 | 1000
11 | CC[C@H](C)[C@H](NC(=O)C(CN)C(O)[C@H](CC1CCCCC1)NC(=O)[C@H](Cc1c[nH]cn1)NC(=O)[C@H](Cc1ccccc1)NC(=O)OC(C)(C)C)C(=O)OC (some centres unmarked) [Example 82] | 89 | 1400
